Six compounds from patent publication US10711036B2, “MALT1 inhibitors and uses thereof” (Cornell University, priority 2015, dated 2020) can be followed below.

The target in assay [1] is T1, MALT1 (Homo sapiens (Human), UniProt Q9UDY8). The assay can be described thus: Inhibition constants (Ki) for inhibition of MALT1. Type of assay: biochemical. The conditions noted are these: 100 nM MALT1 used for the assay. Here is the method:
For exemplary compounds of the disclosure, Ki for inhibition of MALT1 was measured (Table E11). A concentration of 100 nM MALT1 was used for the assay.

Assay [2] relates to OCI-LY3. The assay can be described thus: Cell growth inhibition assay (CellTiter-Glo, 96 hours), OCI-LY3. Type of assay: cell-based, human. The conditions noted are these: OCI-LY3 cells, treated at t=0 and t=48 hours, ATP luminescence. The protocol:
DLBCL cell lines were grown in exponential growth conditions during the 96 hours of treatment. Cells were treated twice: at t=0 and t=48 hours, and cell viability was determined by ATP quantification using a luminescent method ([…]-GLO, Promega, Madison, Wis.). Cell viability in drug-treated cells was normalized to vehicle controls (fractional viability) and results are given as 1-fractional viability.
Experiments were Performed in Triplicate.
On the technique in general: ATP-based viability assays read luminescence as a measure of living cells.

The subject of assay [3] is OCI-LY3. The assay can be described thus: Maximum killing effect on OCI-LY3. In kind it is cell-based, human. The protocol: (§1) The maximum killing effects on cell-lines OCI-LY3, TMD8, and OCI-LY1 were also measured for select compounds at inhibitor concentration of 20 μM and 5 μM. TMD8 is another line of ABC type diffuse large-B cell lymphoma, while OCI-LY1 is a DLBCL line of the germinal center B-cell subtype.

A further assay has as its system TMD8. The experiment in a line: Maximum killing effect on TMD8. Type of assay: cell-based. The protocol:
as §1

In another assay the test system is OCI-LY1. The experiment in a line: Maximum killing effect on OCI-LY1. Type of assay: cell-based. The protocol:
as §1

Assay [4] concerns the target T1, MALT1. The experiment in a line: X-ray co-crystal structure of compound and MALT1. Type of assay: binding. The settings on record: 2.0 angstrom resolution. The protocol: Compound 101 was incubated with MALT1 to form a complex, and the complex was purified and crystallized for structure determination. X-ray diffraction data was collected, and the compound 101-MALT1 structure was solved in 2.0 angstrom resolution. […] Exemplary evidence for the formation of the covalent bond is the existence of continuous electron density from compound 101 to the Cys464 residue of MALT1. The electron density is 2Fo−Fc map contoured at 1.0 sigma.

Another assay deals with RelB cleavage. The experiment in a line: Western blot for RelB cleavage in OCI-LY3 cells. Type of assay: cell-based, human. The settings on record: OCI-LY3 cells pretreated with inhibitor, then 5 μM MG-132 for 2 hours. Here is the method: FIG. 1A. Western blots for RelB and MALT1 after 30 minutes pretreatment with indicated doses of compounds or vehicle, followed by proteasome inhibitor MG-132 (5 μM) treatment for 2 hours in OCI-LY3. clev=cleavage product of RelB.
FIG. 1B. Western blots for RelB with indicated doses of compounds or vehicle in OCI-LY3.
Western blot: OCI-Ly3 cells (a line of human diffuse large B-cell lymphoma (ABC type)) were pre-treated for 30 minutes with indicated doses of MALT1 inhibitors followed by a 2-hour treatment with proteasome inhibitor MG-132 at 5 μM. Protein was then extracted in a PBS-based lysis buffer containing 1% NP-40. Equal amounts of total protein (50 to 75 μg) were separated on sodium dodecyl sulfate-polyacrylamide gel electrophoresis (SDS-PAGE), and electrotransferred onto nitrocellulose membranes. Membranes were incubated with primary antibodies (MALT1, from Santa Cruz Biotechnologies, Santa Cruz, Calif.; RELB from Cell Signaling, Danvers, Mass., and α-Tubulin from Sigma), followed by secondary antibodies conjugated to horseradish peroxidase, which were detected by chemiluminescence (Pierce, Thermo Scientific, Rockford, Ill.).
OCI-LY3 cells were pretreated with the an inhibitor at the desired concentration and subsequently treated with 5 μM MG-132, a proteasome inhibitor, for 2 hours.
For orientation: Immunoblotting shows a protein as a band on a membrane.

Where a SMILES comes first, the peptide text is derived from it. [ ]: non-standard residue; d: D form. The star is where a group is joined. Hyp = O=C(O)[C@@H]1C[C@@H](O)CN1; NMeV = CN[C@H](C(=O)O)C(C)C; Pip = O=C(O)[C@@H]1CCCCN1; Cbz = O=C(OCc1ccccc1)*; CH2F = FC*

A word on the Ki: it is the equilibrium dissociation constant of an inhibitor or competing ligand from its target. Lower therefore signals higher affinity. One may read the GI50 as the concentration that inhibits growth by half. High values mean lower sensitivity of the cells, low ones greater sensitivity of the cells.

T1 sequence (Q9UDY8 whole entry): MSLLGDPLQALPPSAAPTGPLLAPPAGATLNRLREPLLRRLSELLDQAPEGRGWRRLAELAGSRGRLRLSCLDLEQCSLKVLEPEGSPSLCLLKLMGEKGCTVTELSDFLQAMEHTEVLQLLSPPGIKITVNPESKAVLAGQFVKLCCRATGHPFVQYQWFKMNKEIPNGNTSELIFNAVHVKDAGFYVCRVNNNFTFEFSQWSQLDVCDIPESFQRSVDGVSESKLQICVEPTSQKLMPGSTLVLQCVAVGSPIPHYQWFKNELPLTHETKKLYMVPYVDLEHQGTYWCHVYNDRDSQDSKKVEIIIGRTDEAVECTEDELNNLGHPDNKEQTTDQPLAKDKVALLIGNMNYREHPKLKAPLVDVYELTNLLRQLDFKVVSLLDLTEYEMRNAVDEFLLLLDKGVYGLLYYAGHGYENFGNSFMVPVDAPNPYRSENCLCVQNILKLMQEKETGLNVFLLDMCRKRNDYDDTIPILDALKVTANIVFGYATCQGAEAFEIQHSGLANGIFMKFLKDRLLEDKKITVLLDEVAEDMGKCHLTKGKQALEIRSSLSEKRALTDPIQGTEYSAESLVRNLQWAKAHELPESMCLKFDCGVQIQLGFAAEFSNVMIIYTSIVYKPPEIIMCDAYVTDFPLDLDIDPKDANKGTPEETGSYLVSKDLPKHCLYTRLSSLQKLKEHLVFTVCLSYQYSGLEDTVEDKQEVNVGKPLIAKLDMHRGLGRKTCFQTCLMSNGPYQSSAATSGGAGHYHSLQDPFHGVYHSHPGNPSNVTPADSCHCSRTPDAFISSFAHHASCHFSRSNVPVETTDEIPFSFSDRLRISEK

Consider `CC(C)[C@H](NC(=O)OCc1ccccc1)C(=O)N1CCC[C@H]1C(=O)N[C@@H](CCCNC(=N)N)C(=O)CF` [Compound 101, Benzyl ((S)-1-((S)-2-(((S)-1-fluoro-6-guanidino-2-oxohexan-3-yl)carbamoyl)pyrrolidin-1-yl)-3-methyl-1-oxobutan-2-yl)carbamate 2,2,2-trifluoroacetate] (Cbz-Val-Pro-Arg-CH2F), for which the Ki at MALT1 [1] was 40 nM. Besides, growth with OCI-LY3 [2] (Homo sapiens) was halved (GI50) at 8520 nM. Also, the Maximum killing effect with OCI-LY3 [3] (OCI-LY3, 5 μM) is 70%; in the assay with OCI-LY3 [3] (OCI-LY3, 20 μM), 79%; in the assay on TMD8 (TMD8, 5 μM), 50%; in the assay on TMD8 (TMD8, 20 μM), 63%; in the assay on OCI-LY1 (OCI-LY1, 5 μM), under 0%; in the assay with OCI-LY1 (OCI-LY1, 20 μM), 7%. Further, the “Covalent bond to Cys464 of MALT1 in co-crystal structure” value at MALT1 [4] is reported as “formation of a covalent bond”.

`CC(C)[C@H](NC(=O)OCc1ccccc1)C(=O)N1CCCC[C@H]1C(=O)N[C@@H](CCCNC(=N)N)C(=O)CF` [Compound 107] (Cbz-Val-[Pip]-Arg-CH2F) returned a Ki on MALT1 [1] of 40 nM. Besides, in the assay on OCI-LY3 [2] (Homo sapiens), the GI50 was 730 nM. The Maximum killing effect in the assay on OCI-LY3 [3] (OCI-LY3, 5 μM) was 38%; in the assay with OCI-LY3 [3] (OCI-LY3, 20 μM) it was 85%; in the assay with TMD8 (TMD8, 5 μM) it was 29%; with TMD8 (TMD8, 20 μM), 58%; with OCI-LY1 (OCI-LY1, 5 μM) it was 3%; in the assay on OCI-LY1 (OCI-LY1, 20 μM), 11%. The “Inhibition of RelB cleavage (Western blot)” value (from here on “Inhibition of RelB cleavage”) with RelB cleavage is “inhibition of RelB cleavage”.

In turn, `CC(C)[C@H](NC(=O)OCc1ccccc1)C(=O)N1C[C@H](O)C[C@H]1C(=O)N[C@@H](CCCNC(=N)N)C(=O)CF` [Compound 109] (Cbz-Val-[Hyp]-Arg-CH2F) yielded an inhibition constant (Ki) at MALT1 [1] of 53 nM. The compound further came in with a GI50 with OCI-LY3 [2] (Homo sapiens) of 290 nM. In addition, the “Inhibition of RelB cleavage” value in the assay with RelB cleavage is given as “inhibition of RelB cleavage”.

With `CC(C)[C@@H](C(=O)N1CCC[C@H]1C(=O)N[C@@H](CCCNC(=N)N)C(=O)CF)N(C)C(=O)OCc1ccccc1` [Compound 112] (Cbz-[NMeV]-Pro-Arg-CH2F), the Ki on MALT1 [1] is 808 nM. Moreover, the GI50 in the assay on OCI-LY3 [2] (Homo sapiens) is over 20000 nM. In addition, the Maximum killing effect in the assay on OCI-LY3 [3] (OCI-LY3, 5 μM) is recorded as 28%; in the assay on OCI-LY3 [3] (OCI-LY3, 20 μM), 51%; in the assay with TMD8 (TMD8, 20 μM), 66%; in the assay on OCI-LY1 (OCI-LY1, 5 μM) it was 5%; with OCI-LY1 (OCI-LY1, 20 μM), 2%. In addition, the “Inhibition of RelB cleavage” value with RelB cleavage is on record as “inhibition of RelB cleavage”.

In the case of `CC(C)[C@H](NC(=O)c1ccc(Br)cc1)C(=O)N1CCC[C@H]1C(=O)N[C@@H](CCCNC(=N)N)C(=O)CF` [Compound 116], the affinity on MALT1 [1], expressed as Ki, was 10 nM. In the assay on OCI-LY3 [2] (Homo sapiens), this compound displayed a GI50 of 130 nM. Moreover, the Maximum killing effect stood at 90% with OCI-LY3 [3] (OCI-LY3, 20 μM); 76% in the assay with TMD8 (TMD8, 20 μM); 19% in the assay on OCI-LY1 (OCI-LY1, 20 μM). Moreover, in the assay with RelB cleavage, the “Inhibition of RelB cleavage” value is given as “inhibition of RelB cleavage”.

`CC(C)C[C@H](NC(=O)OCc1ccccc1)C(=O)N(C)[C@H](C(=O)N1CCC[C@H]1C(=O)N[C@@H](CCCNC(=N)N)C(=O)CF)C(C)C` [Compound 203] (Cbz-L[NMeV]PR-CH2F) had a GI50 in the assay with OCI-LY3 [2] of 819 nM. The Maximum killing effect in the assay with OCI-LY3 [3] (OCI-LY3, 20 μM) is reported as 79%; in the assay with TMD8 (TMD8, 20 μM), 59%; in the assay with OCI-LY1 (OCI-LY1, 20 μM), 3%. For the same compound, the “Inhibition of RelB cleavage” value with RelB cleavage is on record as “inhibition of RelB cleavage”.
